Measured values from the NIST ThermoML archive (doi:10.1021/je900437b).

Assay: xn = mol fraction of the nth substance listed
Conditions: 101 kPa, Liquid; for speed of sound: Sing-around technique in a fixed-path interferometer; for mass density: Vibrating tube method

CC(C)(N)CO [2-amino-2-methylpropan-1-ol] + NCCO
Conditions	mass density [kg/m3]	speed of sound [m/s]
293.15 K, x2 = 0	936.751	1501.4
293.15 K, x2 = 0.141	944.932	1525.9
293.15 K, x2 = 0.2691	953.001	1550.2
293.15 K, x2 = 0.3862	961.121	1574
293.15 K, x2 = 0.4939	969.165	1597.6
293.15 K, x2 = 0.5933	977.051	1621.2
293.15 K, x2 = 0.6869	984.969	1645.1
293.15 K, x2 = 0.7724	992.742	1668.2
293.15 K, x2 = 0.8532	1000.62	1691
293.15 K, x2 = 0.9268	1008.22	1712.6
298.15 K, x2 = 0	932.596	1483.4
298.15 K, x2 = 0.141	940.731	1508.3
298.15 K, x2 = 0.2691	948.799	1533
298.15 K, x2 = 0.3862	956.918	1557.1
298.15 K, x2 = 0.4939	964.959	1580.9
298.15 K, x2 = 0.5933	972.875	1604.7
298.15 K, x2 = 0.6869	980.811	1628.8
298.15 K, x2 = 0.7724	988.58	1652
298.15 K, x2 = 0.8532	996.465	1674.8
298.15 K, x2 = 0.9268	1004.08	1696.5
303.15 K, x2 = 0	928.395	1461.2
303.15 K, x2 = 0.141	936.493	1486.9
303.15 K, x2 = 0.2691	944.603	1512.3
303.15 K, x2 = 0.3862	952.718	1537.1
303.15 K, x2 = 0.4939	960.768	1561.6
303.15 K, x2 = 0.5933	968.682	1585.9
303.15 K, x2 = 0.6869	976.624	1610.5
303.15 K, x2 = 0.7724	984.413	1634.3
303.15 K, x2 = 0.8532	992.305	1657.7
303.15 K, x2 = 0.9268	999.98	1679.9
308.15 K, x2 = 0	924.174	1442.4
308.15 K, x2 = 0.141	932.236	1468.5
308.15 K, x2 = 0.2691	940.355	1494.4
308.15 K, x2 = 0.3862	948.482	1519.5
308.15 K, x2 = 0.4939	956.545	1544.3
308.15 K, x2 = 0.5933	964.465	1569
308.15 K, x2 = 0.6869	972.442	1593.8
308.15 K, x2 = 0.7724	980.259	1617.7
308.15 K, x2 = 0.8532	988.206	1641.2
308.15 K, x2 = 0.9268	995.885	1663.6
313.15 K, x2 = 0	919.945	1423.8
313.15 K, x2 = 0.141	927.969	1450.4
313.15 K, x2 = 0.2691	936.091	1476.5
313.15 K, x2 = 0.3862	944.248	1501.9
313.15 K, x2 = 0.4939	952.319	1527
313.15 K, x2 = 0.5933	960.252	1551.9
313.15 K, x2 = 0.6869	968.25	1576.9
313.15 K, x2 = 0.7724	976.093	1601
313.15 K, x2 = 0.8532	984.066	1624.7
313.15 K, x2 = 0.9268	991.791	1647.3
318.15 K, x2 = 0	915.702	1405.3
318.15 K, x2 = 0.141	923.687	1432.2
318.15 K, x2 = 0.2691	931.816	1458.6
318.15 K, x2 = 0.3862	940.009	1484.3
318.15 K, x2 = 0.4939	948.077	1509.7
318.15 K, x2 = 0.5933	956.017	1534.8
318.15 K, x2 = 0.6869	964.037	1559.9
318.15 K, x2 = 0.7724	971.917	1584.1
318.15 K, x2 = 0.8532	979.896	1608
318.15 K, x2 = 0.9268	987.66	1630.8
323.15 K, x2 = 0	911.431	1386.9
323.15 K, x2 = 0.141	919.381	1414.2
323.15 K, x2 = 0.2691	927.518	1440.8
323.15 K, x2 = 0.3862	935.735	1466.7
323.15 K, x2 = 0.4939	943.814	1492.3
323.15 K, x2 = 0.5933	951.753	1517.7
323.15 K, x2 = 0.6869	959.804	1542.9
323.15 K, x2 = 0.7724	967.721	1567.2
323.15 K, x2 = 0.8532	975.738	1591.3
323.15 K, x2 = 0.9268	983.527	1614.4

CN(CCO)CCO [N-methyldiethanolamine] + NCCO
Conditions	mass density [kg/m3]	speed of sound [m/s]
293.15 K, x2 = 0	1042.2	1585.5
293.15 K, x2 = 0.1789	1040.32	1603.7
293.15 K, x2 = 0.3286	1038.49	1622.3
293.15 K, x2 = 0.456	1036.46	1640
293.15 K, x2 = 0.5691	1034.2	1656.3
293.15 K, x2 = 0.6614	1031.81	1671.6
293.15 K, x2 = 0.7451	1029.17	1686
293.15 K, x2 = 0.8197	1026.39	1698.7
293.15 K, x2 = 0.854	1025	1705.5
293.15 K, x2 = 0.8865	1023.48	1712
293.15 K, x2 = 0.9461	1020.22	1723.3
293.15 K, x2 = 0.9738	1018.27	1729.4
298.15 K, x2 = 0	1038.29	1570.1
298.15 K, x2 = 0.1789	1036.35	1588.5
298.15 K, x2 = 0.3286	1034.46	1607.1
298.15 K, x2 = 0.456	1032.46	1624.7
298.15 K, x2 = 0.5691	1030.16	1641
298.15 K, x2 = 0.6614	1027.72	1656.2
298.15 K, x2 = 0.7451	1025.1	1670.5
298.15 K, x2 = 0.8197	1022.32	1683.1
298.15 K, x2 = 0.854	1020.84	1689.8
298.15 K, x2 = 0.8865	1019.33	1696.3
298.15 K, x2 = 0.9461	1016.09	1707.3
298.15 K, x2 = 0.9738	1014.2	1713.3
303.15 K, x2 = 0	1034.36	1554.8
303.15 K, x2 = 0.1789	1032.34	1573.4
303.15 K, x2 = 0.3286	1030.41	1591.9
303.15 K, x2 = 0.456	1028.38	1609.4
303.15 K, x2 = 0.5691	1026.07	1625.7
303.15 K, x2 = 0.6614	1023.61	1640.8
303.15 K, x2 = 0.7451	1020.96	1655
303.15 K, x2 = 0.8197	1018.17	1667.5
303.15 K, x2 = 0.854	1016.66	1674.1
303.15 K, x2 = 0.8865	1015.15	1680.6
303.15 K, x2 = 0.9461	1011.9	1691.5
303.15 K, x2 = 0.9738	1009.95	1697.5
308.15 K, x2 = 0	1030.43	1539.5
308.15 K, x2 = 0.1789	1028.36	1558.2
308.15 K, x2 = 0.3286	1026.41	1576.6
308.15 K, x2 = 0.456	1024.37	1594
308.15 K, x2 = 0.5691	1022.01	1610.2
308.15 K, x2 = 0.6614	1019.55	1625.2
308.15 K, x2 = 0.7451	1016.86	1639.4
308.15 K, x2 = 0.8197	1014.03	1651.8
308.15 K, x2 = 0.854	1012.55	1658.3
308.15 K, x2 = 0.8865	1011.03	1664.7
308.15 K, x2 = 0.9461	1007.83	1675.5
308.15 K, x2 = 0.9738	1005.91	1681.3
313.15 K, x2 = 0	1026.48	1524.2
313.15 K, x2 = 0.1789	1024.36	1543
313.15 K, x2 = 0.3286	1022.38	1561.3
313.15 K, x2 = 0.456	1020.33	1578.7
313.15 K, x2 = 0.5691	1017.96	1594.7
313.15 K, x2 = 0.6614	1015.47	1609.7
313.15 K, x2 = 0.7451	1012.76	1623.8
313.15 K, x2 = 0.8197	1009.92	1636
313.15 K, x2 = 0.854	1008.44	1642.5
313.15 K, x2 = 0.8865	1006.91	1648.8
313.15 K, x2 = 0.9461	1003.74	1659.5
313.15 K, x2 = 0.9738	1001.87	1665.2
318.15 K, x2 = 0	1022.53	1508.8
318.15 K, x2 = 0.1789	1020.38	1527.7
318.15 K, x2 = 0.3286	1018.35	1546
318.15 K, x2 = 0.456	1016.27	1563.2
318.15 K, x2 = 0.5691	1013.89	1579.2
318.15 K, x2 = 0.6614	1011.39	1594.1
318.15 K, x2 = 0.7451	1008.66	1608
318.15 K, x2 = 0.8197	1005.81	1620.2
318.15 K, x2 = 0.854	1004.31	1626.6
318.15 K, x2 = 0.8865	1002.79	1632.8
318.15 K, x2 = 0.9461	999.607	1643.3
318.15 K, x2 = 0.9738	997.788	1649
323.15 K, x2 = 0	1018.58	1493.4
323.15 K, x2 = 0.1789	1016.38	1512.4
323.15 K, x2 = 0.3286	1014.32	1530.6
323.15 K, x2 = 0.456	1012.2	1547.7
323.15 K, x2 = 0.5691	1009.81	1563.6
323.15 K, x2 = 0.6614	1007.31	1578.4
323.15 K, x2 = 0.7451	1004.57	1592.2
323.15 K, x2 = 0.8197	1001.7	1604.3
323.15 K, x2 = 0.854	1000.21	1610.7
323.15 K, x2 = 0.8865	998.693	1616.8
323.15 K, x2 = 0.9461	995.464	1627.2
323.15 K, x2 = 0.9738	993.693	1632.8
